Source: US20250296971A1, “GASTRIC INHIBITORY PEPTIDE RECEPTOR LIGANDS” (priority 2021, published 2025)
*1 amine or outer side, *2 acyl side, *3 side chain or, on linkers, in order; H or OH if unused. Where a SMILES comes first, the peptide text is derived from it. Bridges are numbered along the chain shown (N, C = ends). [ ]: non-standard residue; d: D form. The star is where a group is joined. X13 = O=C(CN1CCN2CCN3CCN(CC1)CC(=O)[O][Lu]([O]C(=O)C2)[O]C(=O)C3)NCCCOCCOCCOCCCN*; X3 = O=C(O)CN1CCN(CC(=O)O)CCN(CC(=O)NCCCOCCOCCOCCCN*)CCN(CC(=O)O)CC1; NH(1-deoxy-D-glucityl) = OC[C@@H](O)[C@@H](O)[C@H](O)[C@@H](O)CN*; Pro(trans-4-NH2) = O=C([C@@H]1C[C@@H](N[*:3])CN1[*:1])[*:2]; DOTA = O=C(O)CN1CCN(CC(=O)O)CCN(CC(=O)*)CCN(CC(=O)O)CC1; X9 = O=C(O)CN1CCN(CC(=O)O)CCN([C@H](CCC(=O)*)C(=O)O)CC1; Trp(5-Cl) = N[C@@H](Cc1c[nH]c2ccc(Cl)cc12)C(=O)O; Pyridine(2,6-diCH2) = c1cc(C[*:1])nc(C[*:2])c1; Phe(4-Cl) = N[C@@H](Cc1ccc(Cl)cc1)C(=O)O; Pro(4R-NH2) = N[C@H]1CN[C@H](C(=O)O)C1; Glutaryl = O=C(CCCC(=O)[*:2])[*:1]; X6 = c1cc(CSCCN[*:2])nc(C[*:1])c1; Hyp = O=C(O)[C@@H]1C[C@@H](O)CN1; X1 = O=C(CN1CCC(N[*:1])CC1)[*:2]; Suc = O=C(CCC(=O)[*:2])[*:1]; dDab = NCC[C@@H](N)C(=O)O; Api = NC1(C(=O)O)CCNCC1; Thp = NC1(C(=O)O)CCOCC1; Aib = CC(C)(N)C(=O)O

Target: T1, GIPR (CHO-K1-hGIPR cells) (Homo sapiens, UniProt P48546)
T1 construct: host or cells: CHO-K1
T1 sequence (P48546 22-466): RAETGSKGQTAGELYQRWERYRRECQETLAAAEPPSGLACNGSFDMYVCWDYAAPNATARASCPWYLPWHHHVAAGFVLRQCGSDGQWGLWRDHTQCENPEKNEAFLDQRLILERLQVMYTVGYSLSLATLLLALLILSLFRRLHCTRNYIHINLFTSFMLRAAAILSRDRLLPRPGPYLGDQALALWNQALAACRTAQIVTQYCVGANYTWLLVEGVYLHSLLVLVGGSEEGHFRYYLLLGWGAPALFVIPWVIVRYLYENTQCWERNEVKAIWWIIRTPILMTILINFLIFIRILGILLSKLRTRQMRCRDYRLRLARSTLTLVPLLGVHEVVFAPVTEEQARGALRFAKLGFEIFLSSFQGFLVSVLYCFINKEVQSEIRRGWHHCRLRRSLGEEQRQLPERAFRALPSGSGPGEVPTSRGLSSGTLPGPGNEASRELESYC
Test: FACS binding assay
Conditions: competition with 20 nM GIP-057, 4° C. for 1 hour, read-out: pIC50 Category (converted)
Summary of the method: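 Steps: detach CHO-K1-hGIPR cells (Accutase); wash in PBS/1% FCS; adjust to 500.000 cells per mL; wash ice-cold; incubate APC-streptavidin 1 μg/mL, 30 min on ice; wash twice; acquire on flow cytometer; fit MFI-concentration data with a four-parameter logistic model.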

SMILES | IC50
CC[C@H](C)[C@@H]1NC(=O)[C@H](CC(C)C)NC(=O)C2(CCOCC2)NC(=O)[C@@H](NC(=O)[C@@H](CC(C)C)NC(=O)[C@H](CO)NC(=O)[C@@H]2C[C@@H](O)CN2C(=O)[C@H](Cc2c[nH]c3ccc(Cl)cc23)NC(=O)[C@H](Cc2c[nH]c3ccccc23)NC(=O)[C@H](CC(=O)O)NC(C)=O)CSCc2cccc(n2)CSC[C@@H](C(N)=O)NC1=O [GIP-384, Ac-Asp-Trp-5Clw-Hyp-Ser-leu-[Cys(2Lut)-Thp-Leu-Ile-Cys]-NH2] (Ac-DW[Trp(5-Cl)][Hyp]S[dL]C[Thp]LIC-NH2; linker 7-11 via Pyridine(2,6-diCH2)) | < 10 nM
CC(=O)N[C@@H](CC(=O)O)C(=O)N[C@@H](Cc1c[nH]c2ccccc12)C(=O)N[C@@H](Cc1c[nH]c2ccc(Cl)cc12)C(=O)N1C[C@H](O)C[C@H]1C(=O)N[C@@H](CCC(=O)O)C(=O)N[C@H](CC(C)C)C(=O)N[C@H]1CSCc2cccc(n2)CSC[C@@H](C(N)=O)NC(=O)[C@H](CCC(=O)O)NC(=O)[C@H](CC(C)C)NC(=O)C2(CCOCC2)NC1=O [GIP-354, Ac-Asp-Trp-5Clw-Hyp-Glu-leu-[Cys(2Lut)-Thp-Leu-Glu-Cys]-NH2] (Ac-DW[Trp(5-Cl)][Hyp]E[dL]C[Thp]LEC-NH2; linker 7-11 via Pyridine(2,6-diCH2)) | > 1000 nM

Same assay, conditions: competition with 20 nM GIP-057, 4° C., 1 hour, read-out: pIC50 Category (converted)

SMILES | IC50
CC[C@H](C)[C@@H]1NC(=O)[C@H](CC(C)C)NC(=O)C2(CCOCC2)NC(=O)[C@@H](NC(=O)[C@@H](CC(C)C)NC(=O)[C@H](CCC(=O)O)NC(=O)[C@@H]2C[C@@H](O)CN2C(=O)[C@H](Cc2c[nH]c3ccc(Cl)cc23)NC(=O)[C@H](Cc2c[nH]c3ccccc23)NC(=O)[C@H](CC(=O)O)NC(=O)CCCC(=O)NC[C@H](O)[C@@H](O)[C@H](O)[C@H](O)CO)CSCc2cccc(n2)CSC[C@@H](C(=O)NC2CCN(CC(=O)N[C@H](CCC(=O)NC[C@H](O)[C@@H](O)[C@H](O)[C@H](O)CO)C(N)=O)CC2)NC1=O [GIP-174, AGLU-Glutar-Asp-Trp-5Clw-Hyp-Glu-leu-[Cys(2Lut)-Thp-Leu-Ile-Cys]-APAc-glu(AGLU)-NH2] ({NH(1-deoxy-D-glucityl)-Glutaryl}-DW[Trp(5-Cl)][Hyp]E[dL]C[Thp]LIC[X1][dE](NH(1-deoxy-D-glucityl))-NH2; linker 7-11 via Pyridine(2,6-diCH2)) | < 10 nM
CC[C@H](C)[C@@H]1NC(=O)[C@H](CC(C)C)NC(=O)C2(CCOCC2)NC(=O)[C@@H](NC(=O)[C@@H](CC(C)C)NC(=O)[C@H](CCC(=O)O)NC(=O)[C@@H]2C[C@@H](O)CN2C(=O)[C@H](Cc2c[nH]c3ccc(Cl)cc23)NC(=O)[C@H](Cc2ccc(Cl)cc2)NC(=O)[C@H](CC(=O)O)NC(C)=O)CSCc2cccc(n2)CSC[C@@H](C(N)=O)NC1=O [GIP-210, Ac-Asp-Pcf-5Clw-Hyp-Glu-leu-[Cys(2Lut)-Thp-Leu-Ile-Cys]-NH2] (Ac-D[Phe(4-Cl)][Trp(5-Cl)][Hyp]E[dL]C[Thp]LIC-NH2; linker 7-11 via Pyridine(2,6-diCH2)) | < 10 nM
CC[C@H](C)[C@@H]1NC(=O)[C@H](CC(C)C)NC(=O)C2(CCOCC2)NC(=O)[C@@H](NC(=O)[C@@H](CC(C)C)NC(=O)[C@H](CCC(=O)O)NC(=O)[C@@H]2C[C@@H](O)CN2C(=O)[C@H](Cc2c[nH]c3ccc(Cl)cc23)NC(=O)[C@H](Cc2c[nH]c3ccccc23)NC(=O)CCCC(=O)O)CSCc2cccc(n2)CSC[C@@H](C(N)=O)NC1=O [GIP-214, HO-Glutar-Trp-5Clw-Hyp-Glu-leu-[Cys(2Lut)-Thp-Leu-Ile-Cys]-NH2] (Glutaryl-W[Trp(5-Cl)][Hyp]E[dL]C[Thp]LIC-NH2; linker 6-10 via Pyridine(2,6-diCH2)) | < 10 nM
CC[C@H](C)[C@@H]1NC(=O)[C@H](CC(C)C)NC(=O)C2(CCN(C(=O)CN3CCN(CC(=O)O)CCN(CC(=O)O)CCN(CC(=O)O)CC3)CC2)NC(=O)[C@@H](NC(=O)[C@@H](CC(C)C)NC(=O)[C@H](CCC(=O)O)NC(=O)[C@@H]2C[C@@H](NC(=O)CN3CCN(CC(=O)O)CCN(CC(=O)O)CCN(CC(=O)O)CC3)CN2C(=O)[C@H](Cc2c[nH]c3ccc(Cl)cc23)NC(=O)[C@H](Cc2c[nH]c3ccccc23)NC(=O)[C@H](CC(=O)O)NC(=O)CCC(=O)NCCCOCCOCCOCCCNC(=O)CN2CCN(CC(=O)O)CCN(CC(=O)O)CCN(CC(=O)O)CC2)CSCc2cccc(n2)CSC[C@@H](C(=O)N[C@@H](CCCCNC(=O)CN2CCN(CC(=O)O)CCN(CC(=O)O)CCN(CC(=O)O)CC2)C(N)=O)NC1=O [GIP-056, DOTA-Ttds-Asp-Trp-5Clw-Tap(DOTA)-Glu-leu-[Cys(2Lut)-Apc(DOTA)-Leu-Ile-Cys]-Lys(DOTA)-NH2] ({X3-Suc}-DW[Trp(5-Cl)][Pro(trans-4-NH2)](DOTA)E[dL]C[Api](DOTA)LICK(DOTA)-NH2; linker 7-11 via Pyridine(2,6-diCH2)) | < 10 nM
CC[C@H](C)[C@@H]1NC(=O)[C@H](CC(C)C)NC(=O)C2(CCOCC2)NC(=O)[C@@H](NC(=O)[C@@H](CC(C)C)NC(=O)[C@H](CC(=O)O)NC(=O)[C@@H]2C[C@@H](O)CN2C(=O)[C@H](Cc2c[nH]c3ccc(Cl)cc23)NC(=O)[C@H](Cc2c[nH]c3ccccc23)NC(=O)[C@H](CC(=O)O)NC(C)=O)CSCc2cccc(n2)CSC[C@@H](C(N)=O)NC1=O [GIP-192, Ac-Asp-Trp-5Clw-Hyp-Asp-leu-[Cys(2Lut)-Thp-Leu-Ile-Cys]-NH2] (Ac-DW[Trp(5-Cl)][Hyp]D[dL]C[Thp]LIC-NH2; linker 7-11 via Pyridine(2,6-diCH2)) | < 10 nM
CC[C@H](C)[C@@H]1NC(=O)[C@H](CC(C)C)NC(=O)C2(CCN(C(=O)CC[C@H](C(=O)O)N3CCN(CC(=O)O)CCN(CC(=O)O)CC3)CC2)NC(=O)[C@@H](NC(=O)[C@@H](CC(C)C)NC(=O)[C@H](CCC(=O)O)NC(=O)[C@@H]2C[C@@H](N)CN2C(=O)[C@H](Cc2c[nH]c3ccc(Cl)cc23)NC(=O)[C@H](Cc2c[nH]c3ccccc23)NC(=O)[C@H](CC(=O)O)NC(=O)CCCC(=O)NC[C@H](O)[C@@H](O)[C@H](O)[C@H](O)CO)CSCc2cccc(n2)CSC[C@@H](C(=O)NC2CCN(CC(=O)N[C@H](CCC(=O)NC[C@H](O)[C@@H](O)[C@H](O)[C@H](O)CO)C(N)=O)CC2)NC1=O [GIP-028, AGLU-Glutar-Asp-Trp-5Clw-Tap-Glu-leu-[Cys(2Lut)-Apc(NODAGA)-Leu-Ile-Cys]-APAc-glu(AGLU)-NH2] ({NH(1-deoxy-D-glucityl)-Glutaryl}-DW[Trp(5-Cl)][Pro(4R-NH2)]E[dL]C[Api](X9)LIC[X1][dE](NH(1-deoxy-D-glucityl))-NH2; linker 7-11 via Pyridine(2,6-diCH2)) | < 10 nM
CC[C@H](C)[C@@H]1NC(=O)[C@H](CC(C)C)NC(=O)C2(CCN(C(=O)CN3CCN(CC(=O)O)CCN(CC(=O)O)CCN(CC(=O)O)CC3)CC2)NC(=O)[C@@H](NC(=O)[C@@H](CC(C)C)NC(=O)[C@H](CCC(=O)O)NC(=O)[C@@H]2C[C@@H](O)CN2C(=O)[C@H](Cc2c[nH]c3ccc(Cl)cc23)NC(=O)[C@H](Cc2c[nH]c3ccccc23)NC(=O)[C@H](CC(=O)O)NC(=O)CN2CCC(NC(=O)CCCC(=O)NC[C@H](O)[C@@H](O)[C@H](O)[C@H](O)CO)CC2)CSCc2cccc(n2)CSC[C@@H](C(=O)N[C@H](CCCCNC(=O)CCOCCOCCOCCOCCOCCOCCOCCOCCOCCOCCOCCOCCOCCOCCOCCOCCOCCOCCOCCOCCOCCOCCOCCOCCOCCOCCOCCOCCOCCOCCOCCOCCOCCOCCOCCOCCOC)C(N)=O)NC1=O [GIP-039, AGLU-Glutar-APAc-Asp-Trp-5Clw-Hyp-Glu-leu-[Cys(2Lut)-Apc(DOTA)-Leu-Ile-Cys]-lys(MeO36PEG)-NH2] | 10 to 79.4 nM
CC[C@H](C)[C@@H]1NC(=O)[C@H](CC(C)C)NC(=O)[C@@H](CCNC(=O)CN2CCN(CC(=O)O)CCN(CC(=O)O)CCN(CC(=O)O)CC2)NC(=O)[C@@H](NC(=O)[C@@H](CC(C)C)NC(=O)[C@H](CCC(=O)O)NC(=O)[C@@H]2C[C@@H](N)CN2C(=O)[C@H](Cc2c[nH]c3ccc(Cl)cc23)NC(=O)[C@H](Cc2c[nH]c3ccccc23)NC(=O)[C@H](CC(=O)O)NC(=O)CCCC(=O)NC[C@H](O)[C@@H](O)[C@H](O)[C@H](O)CO)CSCc2cccc(n2)CSC[C@@H](C(=O)NC2CCN(CC(=O)N[C@H](CCC(=O)NC[C@H](O)[C@@H](O)[C@H](O)[C@H](O)CO)C(N)=O)CC2)NC1=O [GIP-027, AGLU-Glutar-Asp-Trp-5Clw-Tap-Glu-leu-[Cys(2Lut)-dab(DOTA)-Leu-Ile-Cys]-APAc-glu(AGLU)-NH2] ({NH(1-deoxy-D-glucityl)-Glutaryl}-DW[Trp(5-Cl)][Pro(4R-NH2)]E[dL]C[dDab](DOTA)LIC[X1][dE](NH(1-deoxy-D-glucityl))-NH2; linker 7-11 via Pyridine(2,6-diCH2)) | 10 to 79.4 nM

Same assay, conditions: pIC50 Category, competition with 20 nM GIP-057, 4° C., 1 hour

SMILES | IC50
CC[C@H](C)[C@@H]1NC(=O)[C@H](CC(C)C)NC(=O)C(C)(C)NC(=O)[C@@H](NC(=O)[C@@H](CC(C)C)NC(=O)[C@H](CCC(=O)O)NC(=O)[C@@H]2CCCN2C(=O)[C@H](Cc2c[nH]c3ccc(Cl)cc23)NC(=O)[C@H](Cc2c[nH]c3ccccc23)NC(=O)[C@H](CC(=O)O)NC(=O)CCC(=O)NCCCOCCOCCOCCCNC(=O)CN2CCN3CCN4CCN(CC2)CC(=O)[O][Lu]([O]C(=O)C3)[O]C(=O)C4)CSCc2cccc(n2)CSCCNC1=O [GIP-163, LuDOTA-Ttds-Asp-Trp-5Clw-Pro-Glu-leu-[Cys(2Lut)-Aib-Leu-Ile-AET]] ({X13-Suc}-DW[Trp(5-Cl)]PE[dL]C[Aib]LI; linker 7-C via X6) | < 10 nM
